From patent publication US20070110751A1, “Compositions and methods for reducing infarct size” (priority 2005, published 2007)
Read-outs that look alike come from different tables or passages of the source.

Columns and labels:
[1] = test system: C57/BL6 mice; assay type: in vivo, mouse
Procedure: Complexes were immunoprecipitated from 300 μg of total protein lysates from each of the indicated treatment groups. ^32P-labeling of histones H1 was measured using a standard Cdk2 kinase assay. […] IFS in DETA/NO-treated mice compared to control Vehicle-treated mice are shown (*P<0.05; n=4 per group).
IFS in Roscovitine-treated mice compared to control vehicle-treated mice are shown (*P<0.001; n=6 per group). […] Ventricular lysates were probed for the indicated proteins. Mean IFS sizes after 24 hours of reperfusion are shown. (*P<0.05 for Cdk2^+/+ versus Cdk2^−/− IFS; n=5 per group).
Male mice were subjected to myocardial ischemia/reperfusion as previously described (Wang, G., et al. 2005. Am. J. Physiol. Heart Circ. Physiol 288:H1290-H1295). Pentobarbital-anesthetized (50 mg/kg body wt i.p.) mice were intubated for positive pressure ventilation with oxygen-enriched room air during the surgical procedure. After left thoracotomy between ribs three and four, the pericardium was opened and a silk 8-0 suture was looped under the left anterior descending coronary artery 1-3 mm from the tip of the normally positioned left atrium. Ischemia was induced by ligation of the suture (a 1 to 2 mm section of PE-10 tubing was placed between the suture and the artery to prevent damage to the vessel). Rectal temperature was continuously measured and maintained at 36.5-37.5° C. Following a 30-min coronary artery occlusion, the suture was removed to allow coronary reperfusion followed by closure of the chest wall. After 24 hours of coronary artery reperfusion the heart was excised and postmortem perfused as previously described (Wang, G., et al. 2005. Am. J. Physiol. Heart Circ. Physiol 288:H1290-H1295). The infarct region was determined by perfusion with a 1% solution of 2,3,5-triphenyltetrazolium chloride (TTC) in phosphate buffer (pH 7.4, 37° C.). To delineate the risk region, the coronary artery was tied at the site of the previous occlusion and the aortic root perfused with a 1% solution of Evans blue dye. Infarct size was measured by planimetry with NIH Image and expressed as a percentage of the area at risk.
Limitation of IFS by pharmacological delayed preconditioning of the heart was induced with the nitric oxide donor diethylenetriamine/nitric oxide (DETA/NO) as previously reported (Wang, G., et al. 2005. Am. J. Physiol. Heart Circ. Physiol 288:H1290-H1295). After dissecting free the left jugular vein in pentobarbital-anesthetized WT mice, DETA/NO was given in 4 boluses 24-hours prior to 30-min coronary artery occlusion (0.1 mg/kg×4, i.v.).

[2] = target: T1, Cdk2 (Mus musculus, UniProt P97377); assay: Cdk2 immune complex kinase assay on ventricular lysates of treated mice (histones H1 as substrate); assay type: in vivo; settings: DETA/NO 0.1 mg/kg x 4 i.v. 24 hours before I/R, compared to vehicle-treated hearts
T1 construct: Cdk2 complexes were immunoprecipitated from ventricular lysates from each of the indicated treatment groups; from tissue; host or cells: mouse heart ventricle (C57/BL6 mice, treated in vivo)
Procedure: Complexes were immunoprecipitated from 300 μg of total protein lysates from each of the indicated treatment groups. ^32P-labeling of histones H1 was measured using a standard Cdk2 kinase assay.
Ventricular lysates were probed for the indicated proteins.
Western blotting was performed using the identical protein lysates. Antibodies were purchased from Santa Cruz Biotechnology (Santa Cruz). Protein expression was visualized using horseradish peroxidase-conjugated second antibodies and enhanced chemiluminescence reagents (Amersham Biosciences). Nonsaturated autoradiographs were quantitated with SigmaScan.
Cdk2 complexes were immunoprecipitated from ventricular lysates from each of the indicated treatment groups.

SMILES	reduction in infarct size compared to vehicle treated mice ([1]; Roscovitine 2.8 mg/gm i.p. two hours prior to ischemia, 30 min occlusion, 24 h reperfusion, vs DMSO vehicle) [%]	infarct size (IFS % of A@R) ([1]; Roscovitine 2.8 mg/gm intraperitoneally two hours prior to ischemia, 30 min LAD occlusion, 24 h reperfusion, mean ± SEM, P<0.001 vs vehicle (DMSO), n=6 per group)	infarct size (IF % of the A@R) ([1]; DETA/NO 0.1 mg/kg x 4 i.v. 24 hours before 30-min coronary occlusion, wildtype mice, mean ± SEM, P<0.05 vs vehicle, n=4 per group)	reduction in infarct size compared to vehicle treated mice ([1]; DETA/NO 0.1 mg/kg x 4 i.v. 24 hours before I/R injury, vs vehicle) [%]	Cdk2 activity in hearts after 30 minutes of ischemia [2]	Cdk2 activity in hearts after 30 minutes of ischemia ([2]; listed as NO donor)
CC[C@H](CO)Nc1nc(NCc2ccccc2)c2ncn(C(C)C)c2n1 [Roscovitine, 6-Benzylamino-2-(R)-[(1-ethyl)-2-hydroxyethylamino]-9-isopropyl-purine]	36.7	34.2±2.6 IFS % of A@R	–	–	–	–
NCCN(CCN)/[N+]([O-])=N/O [DETA/NO, diethylenetriamine/nitric oxide]	–	–	35.0±3.7 IF % of the A@R	32	decreased Cdk2 activity	blocked the upregulation of Cdk2
